Laboratory results: patent US7067632B2, “VP22 proteins and uses thereof” (priority 1997, dated 2006)

Key:
Format in all cases: cell-based
[1] = tested on: cellular microtubules (MTs) in COS 1 cells; assay: VP22 deletion mutants transfected into COS 1 cells, immunofluorescence with anti VP22 antibody AGV30: MT bundling and movement between cells; settings: transfected COS 1 cells
Description: To broadly identify the region of VP22 involved in MT interaction, we utilised a range of C terminal deletion mutants of the protein. The plasmids encoding WT, del-267, del-192 and del-119 (FIG. 3a) forms of VP22 were transfected into COS 1 cells and analysed by immunofluorescence using the anti VP22 antibody AGV30. The del-267 and del-119 constructs comprise respectively aminoacids 1–267 inclusive, and aminoacids 1–119 inclusive of the wild type sequence of VP22 of HSV1 as disclosed in above-cited WO 97/05265 and references cited therein. The del-192 construct consists of aminoacids 1–191 inclusive plus a residue 192 mutated to leucine.
In these examples the longer sequences have increasing efficiency.

[2] = tested on: cellular microtubules (MTs) in COS 1 cells
[3] = tested on: cellular microtubules (MTs) in COS 1 cells; assay: Double immunofluorescence (anti-VP22, anti alpha tubulin) of COS 1 cells expressing VP22: co-localisation with and bundling of microtubules
Description: To investigate the possibility that the pattern of localisation in cells expressing VP22 represents co-localisation with a component of the cytoskeleton, COS 1 cells were transfected with the VP22 expression plasmid pGE109. Forty hours after transfection, the cells were fixed with 100% methanol and double immunofluorescence carried out with antibodies against VP22 (polyclonal AGV30) and alpha tubulin (monoclonal anti alpha tubulin, Sigma).
COS 1 cells treated in the same manner were exposed to the MT stabilising drug taxol (10 microM) for 30 minutes prior to fixation. […] The MT binding property of VP22 can also be used to deliver coupling products between VP22 and other substances, such as taxol or a related compound to MTs.

[4] = tested on: acetylated form of tubulin; assay: Acetylation of MTs: colocalisation immunofluorescence and Western blot with monoclonal antibody specific for acetylated tubulin
Description: Acetylation of MTs was previously reported as a marker for MT stability (Piperno et al, J Cell Biol 104 (1987) 289–302). This has been shown by use of monoclonal antibody specific for the acetylated form of tubulin (obtainable from Sigma Chemical), in colocalisation assays by immunofluorescence, and by Western blot assays. This effect can be used as a biochemical marker for analysing and quantitating the level of MT stabilisation induced by VP22 or a variant or derviative thereof.

1–159: VP22 fragment consisting of residues 1–159
MT bundling / cytoplasmic filament formation by VP22 forms [1]: did not appear to retain the MT-bundling activity

1–172: variant VP22 protein consisting of residues 1–172 of the native VP22 of HSV1
MT bundling / cytoplasmic filament formation by VP22 forms [1]: retain in some degree the ability to bundle microtubules

COC(=O)Nc1nc2ccc(C(=O)c3cccs3)cc2[nH]1 [Nocodazole, nocodazole, reference compound]
Effect of nocodazole on the MT network of untransfected cells [2]: depolymerisation of the MT network

CC(=O)O[C@H]1C(=O)[C@@]2(C)[C@H]([C@H](OC(=O)c3ccccc3)[C@]3(O)C[C@H](OC(=O)[C@H](O)[C@@H](NC(=O)c4ccccc4)c4ccccc4)C(C)=C1C3(C)C)[C@]1(OC(C)=O)CO[C@@H]1C[C@@H]2O [taxol, reference compound]
Effect on MTs in untransfected cells ([3]; untransfected COS 1 cells, taxol 10 microM, 30 minutes prior to fixation): creating large bundles of MTs

VP22: product of the herpes simplex virus type 1 (HSV 1) UL49 gene, the structural tegument protein VP22, 32 kD
Co-localisation with and bundling of the cellular MT network ([3]; COS 1 cells transfected with pGE109, fixed 40 h after transfection): colocalises and reorganises the cellular MT network into bundles | MT bundles in VP22 expressing cells exposed to taxol ([3]; VP22 expressing COS 1 cells plus taxol 10 microM, 30 minutes): these bundles were even more striking and again co-localised with VP22 | Stabilisation of MTs against nocodazole depolymerisation ([2]; VP22 expressing COS 1 cells, nocodazole 500 ng/ml, 30 minutes): does not depolymerise the MTs | Stabilisation of MTs against depolymerisation by cold ([2]; incubation of cells at 4 deg C): stabilised MTs against depolymerisation by 4 deg C. incubation | Acetylation of MTs (marker for MT stability) [4]: associated with acetylation of the MTs | MT bundling / cytoplasmic filament formation by VP22 forms [1]: VP22 in cytoplasmic filaments | Movement of the protein between cells (transport) [1]: surrounded by cells with VP22 in their nuclei
